According to patent publication EP2698384A1, “Detection of synthetic cannabinoids” (priority 2012, dated 2014):
Where a name gives a salt, the structure may show the parent alone. Read-outs that look alike come from different tables or passages of the source.

Experiments:
Type in all cases: binding, sheep
[1] = tested on: Antibody to Immunogen V
Protocol: (§1) The wells of an enhanced binding 96 well polystyrene microtiter plate were coated with IgG fraction of antiserum raised to Immunogen VI, diluted in 10mM Tris, pH8.5 (125µl/well). The appropriate antibody coating dilution was determined using standard ELISA checkerboard techniques. The plate was incubated overnight at 4°C, washed 4 times over 10 minutes with Tris buffered saline containing Tween 20 (TBST) and tapped dry. Standard solutions of RCS-4 were prepared in TBST at 0, 0.3125, 0.625, 1.25, 2.5, 5, 10 and 20ng/ml, and 50µl of each was added to the appropriate wells (see figure 1). 75µl of conjugate (appropriate hapten-HRP) diluted in Tris buffer (pH 7.2) containing EDTA, D-mannitol, sucrose, thimerosal and BSA, was added to each of the wells. The appropriate dilution of conjugate was also determined using standard ELISA checkerboard techniques. The plate was incubated at 25°C for 1 hour. Excess unbound conjugate was removed by washing 6 times over a 10 minute period with TBST. 125µl oftetramethylbenzidine (TMB) substrate solution was added to each well of the plate that was then incubated for 20 minutes in the dark at room temperature. The reaction was terminated by addition of 125µl 0.2M H2SO4 to each well. The absorbance was then measured at 450nm using a microtiter plate reader. The data are inputted to a computer program called 'KC Junior'. It is a 4 parameter fit curve and allow the calculatation of concentrations between the standard runs. This program is used to calculate the IC50s by dividing the 0ng/ml OD value by 2 and obtaining the concentration value from the curve for this OD.
In a similar manner to that described above, the wells of a 96-well microtiter plate were coated with the IgG fraction of the antiserum raised to Immunogens IV, V, VII or VIII. Standard solutions (RCS-8 for Immunogen V) were prepared in TBST at 0, 1.25, 2.5, 5, 10, 20, 40 and 80ng/ml and conjugate was employed as detection reagent.
(§2) The data set our in Tables 3 and 4 are generated using antibodies raised against the indicated Immunogens in a competitive binding assay with the indicated tracers, using the indicated standards: Table 2
(§3) In order to determine the specificity of the competitive ELISAs, standard solutions of a range of structurally similar synthetic cannabinoids and their metabolites were prepared in TBST. Using the calibration curves generated and employing a single level of cross reactants, these were used to determine the cross-reactivity of each immunoassay with these substances. Table 4: Cross reactivity of the competitive ELISAs for synthetic cannabinoids and their metabolites

[2] = tested on: Antibody to Immunogen III
Protocol: as §1
In a similar manner to that described above, the wells of a 96-well microtiter plate were coated with the IgG fraction of the antiserum raised to Immunogens I, II or III. Standard solutions (JWH-250 for Immunogen III) were applied at 0, 0.625, 1.25, 2.5, 5, 10, 20 and 40ng/ml and conjugate was employed as detection reagent.
as §2, §3

[3] = tested on: Antibody to Immunogen VI
Protocol: as §1, §2, §3

[4] = Cross-reactants at 100 ng/ml, 1000ng/ml, single level of cross reactants

Row | Structure (SMILES) | %B/B0 [1, 4] [%] | %B/B0 [2, 4] [%] | %B/B0 [3, 4] [%] | other results
1 | CCCC(C)(C)c1ccc2c(c1)OC(C)(C)[C@@H]1CC=C(C)C[C@@H]21 [JWH-133] | 90.40 | 97.40 | 93.73 | 
2 | CCCCCn1cc(C(=O)c2ccc(CCC)c3ccccc23)c2ccccc21 [JWH-182] | 82.38 | 76.14 | 85.69 | 
3 | O=C(c1ccc2ccccc2c1)c1cn(CCN2CCOCC2)c2ccccc12 [JWH-200 2'-naphthyl isomer] | 75.36 | 99.13 | 20.66 | 
4 | O=C(c1cccc2ccccc12)c1cn(CCN2CCOCC2)c2cccc(O)c12 [JWH-200 4-hydroxyindole metabolite] | 74.79 | 95.93 | 90.44 | 
5 | O=C(c1cccc2ccccc12)c1cn(CCN2CCOCC2)c2ccc(O)cc12 [JWH-200 5-hydroxyindole metabolite] | 82.38 | 96.49 | 93.65 | 
6 | O=C(c1cccc2ccccc12)c1cn(CCN2CCOCC2)c2cc(O)ccc12 [JWH-200 6-hydroxyindole metabolite] | 69.91 | 95.45 | 88.68 | 
7 | CCCCCn1cc(C(=O)Cc2ccc(OC)cc2)c2ccccc21 [JWH-201] | 68.62 | 27.93 | 69.32 | 
8 | CCCCCn1cc(C(=O)Cc2ccccc2Cl)c2ccccc21 [JWH-203] | 15.33 | 18.15 | 83.09 | 
9 | CCCCCn1cc(C(=O)Cc2ccc(Cl)cc2)c2ccccc21 [JWH-206 (JWH-203 4-chloro isomer)] | 51.00 | 26.33 | 78.35 | 
10 | CCCCCn1cc(C(=O)c2c(CC)ccc3ccccc23)c2ccccc21 [JWH-210 2-ethylnaphthyl isomer] | 85.10 | 85.02 | 89.90 | 
11 | CCCCCn1cc(C(=O)c2ccc(CC)c3ccccc23)c2cc(O)ccc21 [JWH-210 5-hydroxyindole metabolite] | 79.94 | 87.01 | 86.92 | 
12 | CCCCCn1cc(C(=O)c2cccc3ccc(CC)cc23)c2ccccc21 [JWH-210 7-ethylnaphthyl isomer or JWH-234] | 85.10 | 73.32 | 87.07 | 
13 | CCc1ccc(C(=O)c2cn(CCCCCC(=O)O)c3ccccc23)c2ccccc12 [JWH-210 N-(5-carboxypentyl) metabo lite] | 70.77 | 94.24 | 63.50 | 
14 | CCCCCn1cc(C(=O)c2ccc(CC)c3ccccc23)c2ccccc21 [JWH-210] | 70.20 | 69.64 | 72.07 | 
15 | CCCCCn1cc(C(=O)Cc2ccccc2OC)c2ccccc21 [JWH-250, 2-(2-methoxyphenyl)-1-(1-pentyl-1H-indol-3-yl)ethanone] | 8.74 | 11.91 | 82.17 | IC50 ([2]; standard JWH-250, standard concentration which produces 50% B/B0): 3.850 ng/mL; %B/B0 ([2]; standard curve, JWH-250 1 ng/ml (first row printed 1)): 84%; %B/B0 ([2]; standard curve, JWH-250 1 ng/ml (second row printed 1)): 70%; %B/B0 ([2]; standard curve, JWH-250 3 ng/ml): 59%; %B/B0 ([2]; standard curve, JWH-250 5 ng/ml): 43%; %B/B0 ([2]; standard curve, JWH-250 10 ng/ml): 38%; %B/B0 ([2]; standard curve, JWH-250 20 ng/ml): 29%; %B/B0 ([2]; standard curve, JWH-250 40 ng/ml): 23%
16 | CCCCCn1cc(C(=O)Cc2ccccc2C)c2ccccc21 [JWH-251] | 13.61 | 17.28 | 79.72 | 
17 | CCCCCn1cc(C(=O)Cc2cccc(OC)c2)c2ccccc21 [JWH-302] | 32.66 | 19.97 | 71.16 | 

Row | Structure (SMILES) | %B/B0 [1, 4] [%] | %B/B0 [2, 4] [%] | %B/B0 [3, 4] [%] | other results
18 | CCCCCn1cc(C(=O)c2cccc3c(Cl)cccc23)c2ccccc21 [JWH-398 5-chloronaphthyl isomer] | 70.34 | 64.92 | 76.13 | 
19 | O=C(c1ccc(Cl)c2ccccc12)c1cn(CCCCCO)c2ccccc12 [JWH-398 N-(5-hydroxypentyl) metabo lite] | 55.87 | 76.01 | 69.24 | 
20 | CCCCCn1cc(C(=O)c2ccc(Cl)c3ccccc23)c2ccccc21 [JWH-398] | 65.76 | 71.37 | 72.30 | 
21 | O=C(c1cccc2ccccc12)c1c[nH]c2ccccc12 [N-desalkyl JWH-018: LK1012 10CD194] | 81.80 | 99.73 | 87.49 | 
22 | CCCCCn1cc(C(=O)c2ccccc2OC)c2ccccc21 [RCS-4 2-methoxy isomer] | 68.38 | 64.43 | 81.06 | 
23 | CCCCCn1cc(C(=O)c2cccc(OC)c2)c2ccccc21 [RCS-4 3-methoxy isomer] | 66.18 | 58.00 | 41.84 | 
24 | COc1ccc(C(=O)c2cn(CCCC(C)O)c3ccccc23)cc1 (stereo not drawn) [RCS-4 N-(4-hydroxypentyl) metabolite] | 71.93 | 66.40 | 5.69 | 
25 | COc1ccc(C(=O)c2cn(CCCCCC(=O)O)c3ccccc23)cc1 [RCS-4 N-(5-carboxypentyl) metabolite] | 60.79 | 91.87 | 4.25 | 
26 | COc1ccc(C(=O)c2cn(CCCCCO)c3ccccc23)cc1 [RCS-4 N-(5-hydroxypentyl) metabolite] | 63.69 | 72.34 | 3.76 | 
27 | CCCCCn1cc(C(=O)c2ccc(OC)cc2)c2ccccc21 [RCS-4] | 64.84 | 57.10 | 4.90 | IC50 ([3]; standard RCS-4, standard concentration which produces 50% B/B0): 1.020 ng/mL; %B/B0 ([3]; standard curve, RCS-4 0.3125 ng/ml): 74%; %B/B0 ([3]; standard curve, RCS-4 0.625 ng/ml): 60%; %B/B0 ([3]; standard curve, RCS-4 1.25 ng/ml): 46%; %B/B0 ([3]; standard curve, RCS-4 2.5 ng/ml): 34%; %B/B0 ([3]; standard curve, RCS-4 5 ng/ml): 25%; %B/B0 ([3]; standard curve, RCS-4 10 ng/ml): 18%; %B/B0 ([3]; standard curve, RCS-4 20 ng/ml): 13%
28 | COc1cccc(CC(=O)c2cn(CCC3CCCCC3)c3ccccc23)c1 [RCS-8 3-methoxy isomer] | 38.01 | 69.47 | 79.95 | 
29 | COc1ccc(CC(=O)c2cn(CCC3CCCCC3)c3ccccc23)cc1 [RCS-8 4-methoxy isomer] | 81.97 | 76.06 | 89.48 | 
30 | COc1ccccc1CC(=O)c1cn(CCC2CCCCC2)c2ccccc12 [RCS-8 (SR-18)] | 8.34 | 64.72 | 85.46 | IC50 ([1]; standard RCS-8, standard concentration which produces 50% B/B0): 7.23 ng/mL; %B/B0 ([1]; standard curve, RCS-8 1.25 ng/ml): 82%; %B/B0 ([1]; standard curve, RCS-8 2.5 ng/ml): 71%; %B/B0 ([1]; standard curve, RCS-8 5 ng/ml): 57%; %B/B0 ([1]; standard curve, RCS-8 10 ng/ml): 43%; %B/B0 ([1]; standard curve, RCS-8 20 ng/ml): 34%; %B/B0 ([1]; standard curve, RCS-8 40 ng/ml): 25%; %B/B0 ([1]; standard curve, RCS-8 80 ng/ml): 19%
31 | NCCc1c[nH]c2ccc(O)cc12 [Serotonin HCl] | 85.91 | 87.69 | 98.60 | 
32 | O=C(c1cccc2ccccc12)c1cn(CCN2CCOCC2)c2ccccc12 [WIN 55,225 (other name JWH-200)] | 49.45 | 88.39 | 71.03 | 
33 | COc1ccc(C(=O)c2c(C)n(CCN3CCOCC3)c3ccccc23)cc1 [WIN-48,098 (other name Pravadoline), Pravadoline] | 77.87 | 89.21 | 23.84 | 
34 | CS(=O)(=O)O.Cc1c(C(=O)c2cccc3ccccc23)c2cccc3c2n1[C@@H](CN1CCOCC1)CO3 [Win 55,212-3 mesylate] | 72.78 | 87.64 | 83.98 | 
